From the supplement of paper PMC6723410

How the values were obtained:
GUMC-403 [1] = test: viability at highest tested concentration (max response) relative to DMSO (% of DMSO control); higher = less cytotoxic; settings: library / dose series: MIPE library, 11-point 1:3 dilution, 48 h
How it was run: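 GUMC-403 papilloma cells, derived from a patient and expanded by conditional reprogramming, were dispensed at 700/well into 1536-well plates in 5 μL F + Y medium. A pin tool delivered 23 nL of each compound across an 11-point 1:3 dilution series for 48 h. CellTiter-Glo luminescence, read on a ViewLux, was normalised so that vehicle wells equalled 100% and empty wells 0%. Values report viability at the highest tested concentration relative to vehicle control.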

GUMC-403 [2] = test: AC50 for reduction of cell viability; higher = less potent; settings: library / dose series: MIPE library, 11-point 1:3 dilution; 48 h

Compound | viability (GUMC-403 [1]; top concentration 46.1 µM) | AC50 for reduction of cell viability (GUMC-403 [2]) [nM] | viability (GUMC-403 [1]; top concentration 23 µM)
CCN1CCN(CC1)CC(=O)NC2=CC=C(C3=C2C4=C(S3)C=CC=C4)C5=C6O\C(=C/C(=O)C6=CC=C5)N7CCOCC7 | 58.7 | 2960 | 
Nc1nc(NCCNc2ncc(-n3ccnc3)c(-c3ccc(Cl)cc3Cl)n2)ccc1[N+](=O)[O-] | 61.4 | 2350 | 
CN(c1ncccc1CNc1nc(Nc2ccc3c(c2)CC(=O)N3)ncc1C(F)(F)F)[S+](C)(=O)[O-] | 28 | 7430 | 
CCNC(=O)Nc1ccc(-c2nc3c(c(N4CCOC[C@@H]4C)n2)CCN(C2COC2)C3)cc1 | 60.3 | 1180 | 
COc1cc2ncn(-c3cc(OCc4ccccc4C(F)(F)F)c(C(N)=O)s3)c2cc1OC | 18.8 | 23500 | 
CN(C)CCCN1c2ccccc2CCc2ccc(Cl)cc21 | 36 | 1320 | 
CC(C)[C@H](C(=O)Nc1ccc(C(=O)NO)cc1)c1ccccc1 | 11 | 18700 | 
COC[C@H]1OC(=O)C2=COC3=C2[C@@]1(C)\C4=C(\[C@@H]5CC[C@H](O)[C@@]5(C)C[C@H]4OC(C)=O)C3=O | 57.4 | 4180 | 
Clc1ccc(C(c2ccc(Cl)cc2)[n+]2ccn(CC(OCc3ccc(Cl)cc3Cl)c3ccc(Cl)cc3Cl)c2)cc1 (configuration not stated) | 25.1 | 20900 | 
NC(=O)[C@@H](CCC(F)(F)F)N(Cc1ccc(-c2ncon2)cc1F)[S+](=O)([O-])c1ccc(Cl)cc1 | 76.2 | 132 | 
CC1(C)CC(=O)c2c(C(F)(F)F)nn(-c3ccc(C(N)=O)c(NC4CCC(O)CC4)c3)c2C1 (configuration not stated) | 67.7 | 296 | 
OC[C@H]1OC(OC2=CC3=C(C(=C2)O)C(=O)\C(=C/O3)C4=CC=C(O)C=C4)[C@H](O)[C@@H](O)[C@@H]1O (some centres not stated) | 21.4 | 9350 | 
C/C=C(/C)C(=O)O[C@H]1C(C)=C2[C@H]([C@@H]1OC(=O)CCCCCCC)[C@@](C)(OC(C)=O)C[C@H](OC(=O)CCC)[C@@]1(O)[C@H]2OC(=O)[C@@]1(C)O | 57.2 | 526 | 
O=C(Nc1cccc(Nc2ncc(Br)c(NCCc3cnc[nH]3)n2)c1)N1CCCC1 | 6.39 | 20900 | 
Nc1ncnc2c1c(-c1cnc3[nH]ccc3c1)nn2C1CCCC1 | 7.41 | 8330 | 
COC1=C(OCCCN2CCOCC2)C=CC\3=C1/N=C(/NC(=O)C4=CN=C(N)N=C4)N5CC/N=C35 |  | 64.5 | 43.9
c1cncc(CN2CCC(n3ncc4c(N5CCOCC5)nc(-c5ccc6[nH]ccc6c5)nc43)CC2)c1 | 62.6 | 332 | 
Nc1cccc(-c2cc3c(Oc4cccc(O)c4)ncnc3[nH]2)c1 | 58 | 8330 | 
CO[C@H]1/C=C\C=C(\C)C(=O)NC2=CC(=O)C(NCCN(C)C)=C(C[C@@H](C)C[C@H](OC)[C@H](O)[C@@H](C)/C=C(/C)[C@@H]1OC(N)=O)C2=O | 5.25 | 1180 | 
Cc1n[nH]c2ccc(-c3cncc(OC[C@@H](N)Cc4ccccc4)c3)cc12 | 5.22 | 2640 | 
C[C@@H]\1COC(=N1)\NC2=CC3=C(C=C2)N=CN=C3NC4=CC(=C(OCC5=NC=CS5)C=C4)Cl | 54.5 | 590 | 
CN1\N=C(N)/C2=C[N]([C@@H]3O[C@H](CO[P](O)(O)=O)[C@@H](O)[C@H]3O)C4=C2C1=NC=N4 | 57.8 | 1480 | 
CC/C(=C(/c1ccc(O)cc1)c1ccc(OCCNC)cc1)c1ccccc1 | 23.9 | 23500 | 
CC#C[C@]1(O)CC[C@H]2[C@@H]/3CCC/4=C/C(=O)CCC4=C3[C@H](C[C@]12C)C5=CC=C(C=C5)N(C)C | 59 | 833 | 
NC(=O)c1ccc2[nH]c(-c3ccc(Oc4ccc(Cl)cc4)cc3)nc2c1 | 79.5 | 2640 | 
COc1ccc(-c2ccc3c(N4CCOCC4)nc(N4C[C@@H](C)O[C@@H](C)C4)nc3n2)cc1CO | 62.3 | 1870 | 
